Test results as given in patent US10508104B2, “6-hydroxy-5-(phenyl/heteroarylsulfonyl)pyrimidin-4(1H)-one as APJ agonists” (Bristol-Myers Squibb Company, priority 2016, dated 2019).

Each molecule was assayed against human APJ receptor (Homo sapiens (Human), UniProt P35414) (assay: Intracellular cAMP accumulation assay (APJ hcAMP, HTRF)). Settings: HEK293 cells stably expressing human APJ receptor; inhibition of forskolin-mediated cAMP production; read-out: Human APJ cAMP EC50 Potency range.
Format: cell-based
How it was run: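 HEK293 cells stably expressing human APJ, 5,000 per well, incubated 30 min at rt with compound, […] and 2 μM forskolin. cAMP measured by HTRF against a cAMP standard curve as inhibition of forskolin-driven production. EC50 from variable-slope sigmoidal fit.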

Chain of human APJ receptor (P35414 whole entry): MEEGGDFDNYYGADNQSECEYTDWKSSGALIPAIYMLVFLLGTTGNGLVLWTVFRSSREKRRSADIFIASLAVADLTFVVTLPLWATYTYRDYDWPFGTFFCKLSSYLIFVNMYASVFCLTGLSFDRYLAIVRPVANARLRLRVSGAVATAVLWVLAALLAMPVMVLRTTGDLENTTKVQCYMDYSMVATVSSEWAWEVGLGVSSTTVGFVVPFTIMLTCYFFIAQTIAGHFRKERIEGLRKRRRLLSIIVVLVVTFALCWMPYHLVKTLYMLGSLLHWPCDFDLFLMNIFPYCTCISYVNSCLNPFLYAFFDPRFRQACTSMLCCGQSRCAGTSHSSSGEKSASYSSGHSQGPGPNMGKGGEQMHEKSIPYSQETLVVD

EC50 [nM] | Structure (SMILES)
100 to 300 | COc1cccc(OC)c1-n1c(-c2ccc(F)cc2)nc(=O)c(S(=O)(=O)c2ccc(Br)cc2)c1O [Example 269, 5-((4-Bromophenyl)sulfonyl)-1-(2,6-dimethoxyphenyl)-2-(4-fluorophenyl)-6-hydroxypyrimidin-4(1H)-one]
0.01 to 10 | COc1cccc(OC)c1-n1c(-c2ccc(F)cc2)nc(=O)c(S(=O)(=O)c2ccc(-c3cccnc3C)cc2)c1O [Example 271, 1-(2,6-Dimethoxyphenyl)-2-(4-fluorophenyl)-6-hydroxy-5-((4-(2-methylpyridin-3-yl)phenyl)sulfonyl)pyrimidin-4(1H)-one]
0.01 to 10 | COc1cccc(OC)c1-n1c(-c2ccc(F)cc2)nc(=O)c(S(=O)(=O)c2ccc(-n3cc(Cl)ccc3=O)cc2)c1O [Example 275, 5-((4-(5-Chloro-2-oxopyridin-1 (2H)-yl)phenyl)sulfonyl)-1-(2,6-dimethoxyphenyl)-2-(4-fluorophenyl)-6-hydroxypyrimidin-4(1H)-one]
10 to 100 | COc1cccc(OC)c1-n1c(-c2ccc(F)cc2)nc(=O)c(S(=O)(=O)c2ccc(C3CC3)cc2)c1O [Example 278, 5-((4-Cyclopropylphenyl)sulfonyl)-1-(2,6-dimethoxyphenyl)-2-(4-fluorophenyl)-6-hydroxypyrimidin-4(1H)-one]
10 to 100 | CC[C@@H](c1ccccc1)n1c(C2CCCC2)nc(=O)c(S(=O)(=O)c2ccc(Br)cc2)c1O [Example 279, (S)-5-((4-Bromophenyl)sulfonyl)-2-cyclopentyl-6-hydroxy-1-(1-phenylpropyl)pyrimidin-4(1H)-one]

Same assay, conditions: human APJ, cAMP accumulation; read-out: Human APJ cAMP EC50 Potency range

Structure (SMILES) | EC50 [nM]
COc1cccc(OC)c1-n1c(-c2cncc(C)c2)nc(=O)c(S(=O)(=O)c2ccc(Br)cc2)c1O [Example 270, 5-(4-bromobenzenesulfonyl)-1-(2,6-dimethoxyphenyl)-6-hydroxy-2-(5-methylpyridin-3-yl)-1,4-dihydropyrimidin-4-one] | 10 to 100
CC[C@@H](c1ccccc1)n1c(C2CCCC2)nc(=O)c(S(=O)(=O)c2ccc(-c3cncc(C)c3)cc2)c1O [Example 281, 2-cyclopentyl-6-hydroxy-5-[4-(5-methylpyridin-3-yl)benzenesulfonyl]-1-[(1S)-1-phenylpropyl]-1,4-dihydropyrimidin-4-one] | 0.01 to 10
CC[C@@H](c1ccccc1)n1c(C2CCCC2)nc(=O)c(S(=O)(=O)c2ccc(-c3ccncc3C)cc2)c1O [Example 282, 2-cyclopentyl-6-hydroxy-5-[4-(3-methylpyridin-4-yl)benzenesulfonyl]-1-[(1S)-1-phenylpropyl] 1,4-dihydropyrimidin-4-one] | 0.01 to 10
CC[C@@H](c1ccccc1)n1c(C2CCCC2)nc(=O)c(S(=O)(=O)c2ccc(-c3cncc(F)c3)cc2)c1O [Example 283, 2-cyclopentyl-5-[4-(5-fluoropyridin-3-yl)benzenesulfonyl]-6-hydroxy-1-[(1S)-1-phenylpropyl]-1,4-dihydropyrimidin-4-one] | 0.01 to 10
CCCCc1nc(=O)c(S(=O)(=O)c2ccc(Br)cc2)c(O)n1[C@@H](CC)c1ccccc1 [Example 284, 5-(4-bromobenzenesulfonyl)-2-butyl-6-hydroxy-1-[(1S)-1-phenylpropyl]-1,4-dihydropyrimidin-4-one] | 0.01 to 10
CCOCc1nc(=O)c(S(=O)(=O)c2ccc(Br)cc2)c(O)n1[C@@H](CC)c1ccccc1 [Example 285, 5-(4-bromobenzenesulfonyl)-2-(ethoxymethyl)-6-hydroxy-1-[(1S)-1-phenylpropyl]-1,4-dihydropyrimidin-4-one] | 100 to 300
CC[C@@H](c1ccccc1)n1c(COC(C)C)nc(=O)c(S(=O)(=O)c2ccc(Br)cc2)c1O [Example 286, 5-(4-bromobenzenesulfonyl)-6-hydroxy-1-[(1S)-1-phenylpropyl]-2-[(propan-2-yloxy)methyl]-1,4-dihydropyrimidin-4-one] | 100 to 300
CCCCc1nc(=O)c(S(=O)(=O)c2ccc(-n3ccccc3=O)cc2)c(O)n1[C@@H](CC)c1ccccc1 [Example 287, 2-butyl-6-hydroxy-5-[4-(2-oxo-1,2-dihydropyridin-1-yl)benzenesulfonyl]-1-[(1S)-1-phenylpropyl]-1,4-dihydropyrimidin-4-one] | 0.01 to 10
CCCCc1nc(=O)c(S(=O)(=O)c2ccc(-n3cc(Cl)ccc3=O)cc2)c(O)n1[C@@H](COC)c1ccccc1 [Example 288, 2-butyl-5-[4-(5-chloro-2-oxo-1,2-dihydropyridin-1-yl)benzenesulfonyl]-6-hydroxy-1-[(1R)-2-methoxy-1-phenylethyl]-1,4-dihydropyrimidin-4-one] | 0.01 to 10
CCCCc1nc(=O)c(S(=O)(=O)c2ccc(-c3ccc(F)nc3)cc2)c(O)n1[C@@H](CC)c1ccccc1 [Example 289, 2-butyl-5-[4-(6-fluoropyridin-3-yl)benzenesulfonyl]-6-hydroxy-1-[(1S)-1-phenylpropyl]-1,4-dihydropyrimidin-4-one] | 0.01 to 10

Next, values leading:

EC50 [nM] | Structure (SMILES)
0.01 to 10 | CCCCc1nc(=O)c(S(=O)(=O)c2ccc(-c3cccnc3C)cc2)c(O)n1[C@H](CC)c1cccc2c1OCO2 [Example 260, 1-[(1R)-1-(2H-1,3-benzodioxol-4-yl)propyl]-2-butyl-6-hydroxy-5-[4-(2-methylpyridin-3-yl)benzenesulfonyl]-1,4-dihydropyrimidin-4-one]
0.01 to 10 | CCCCc1nc(O)c(S(=O)(=O)c2ccc(Br)cc2)c(=O)n1[C@@H](CC)c1cccc2c1OCO2 [Example 261, 3-[(1S)-1-(2H-1,3-benzodioxol-4-yl)propyl]-5-(4-bromobenzenesulfonyl)-2-butyl-6-hydroxy-3,4-dihydropyrimidin-4-one]
0.01 to 10 | CCCCc1nc(=O)c(S(=O)(=O)c2ccc(-c3ccc(F)nc3C)cc2)c(O)n1[C@H](CC)c1cccc2c1OCO2 [Example 262, 1-[(1R)-1-(2H-1,3-benzodioxol-4-yl)propyl]-2-butyl-5-[4-(6-fluoro-2-methylpyridin-3-yl)benzenesulfonyl]-6-hydroxy-1,4-dihydropyrimidin-4-one]
0.01 to 10 | CCCCc1nc(=O)c(S(=O)(=O)c2ccc(-c3cccnc3C)cc2)c(O)n1[C@@H](CC)c1cccc2c1OCO2 [Example 263, 1-[(1S)-1-(2H-1,3-benzodioxol-4-yl)propyl]-2-butyl-6-hydroxy-5-[4-(2-methylpyridin-3-yl)benzenesulfonyl]-1,4-dihydropyrimidin-4-one]
0.01 to 10 | CCCCc1nc(=O)c(S(=O)(=O)c2ccc(-c3ccc(F)nc3C)cc2)c(O)n1[C@@H](CC)c1cccc2c1OCO2 [Example 264, 1-[(1S)-1-(2H-1,3-benzodioxol-4-yl)propyl]-2-butyl-5-[4-(6-fluoro-2-methylpyridin-3-yl)benzenesulfonyl]-6-hydroxy-1,4-dihydropyrimidin-4-one]
0.01 to 10 | CCCCc1nc(=O)c(S(=O)(=O)c2ccc(-c3ccncc3C)cc2)c(O)n1[C@@H](CC)c1ccc(C#N)cc1 [Example 265, 4-[(1S)-1-{2-butyl-6-hydroxy-5-[4-(3-methylpyridin-4-yl)benzenesulfonyl]-4-oxo-1,4-dihydropyrimidin-1-yl}propyl]benzonitrile]
0.01 to 10 | CCCCc1nc(=O)c(S(=O)(=O)c2ccc(-c3cccnc3C)cc2)c(O)n1[C@@H](CC)c1ccc(C#N)cc1 [Example 266, 4-[(1S)-1-{2-butyl-6-hydroxy-5-[4-(2-methylpyridin-3-yl)benzenesulfonyl]-4-oxo-1,4-dihydropyrimidin-1-yl}propyl]benzonitrile]
0.01 to 10 | CCCCc1nc(=O)c(S(=O)(=O)c2ccc(-c3ccc(F)nc3C)cc2)c(O)n1[C@@H](CC)c1ccc(C#N)cc1 [Example 267, 4-[(1S)-1-{2-butyl-5-[4-(6-fluoro-2-methylpyridin-3-yl)benzenesulfonyl]-6-hydroxy-4-oxo-1,4-dihydropyrimidin-1-yl}propyl]benzonitrile]
0.01 to 10 | CCCCc1nc(=O)c(S(=O)(=O)c2ccc(-c3ccnc(F)c3C)cc2)c(O)n1[C@@H](CC)c1ccc(C#N)cc1 [Example 268, 4-[(1S)-1-{2-butyl-5-[4-(2-fluoro-3-methylpyridin-4-yl)benzenesulfonyl]-6-hydroxy-4-oxo-1,4-dihydropyrimidin-1-yl}propyl]benzonitrile]
0.01 to 10 | COc1cccc(OC)c1-n1c(-c2cncc(C)c2)nc(=O)c(S(=O)(=O)c2ccc(-c3cccnc3C)cc2)c1O [Example 272, 1-(2,6-dimethoxyphenyl)-6-hydroxy-2-(5-methylpyridin-3-yl)-5-[4-(2-methylpyridin-3-yl)benzenesulfonyl]-1,4-dihydropyrimidin-4-one]
0.01 to 10 | COc1cccc(OC)c1-n1c(-c2ccc(F)cc2)nc(=O)c(S(=O)(=O)c2ccc(-c3ccncc3C)cc2)c1O [Example 273]
0.01 to 10 | COc1cccc(OC)c1-n1c(-c2cncc(C)c2)nc(=O)c(S(=O)(=O)c2ccc(-c3ccnc(F)c3C)cc2)c1O [Example 274, 1-(2,6-dimethoxyphenyl)-5-[4-(2-fluoro-3-methylpyridin-4-yl)benzenesulfonyl]-6-hydroxy-2-(5-methylpyridin-3-yl)-1,4-dihydropyrimidin-4-one]
0.01 to 10 | COc1cccc(OC)c1-n1c(-c2cncc(C)c2)nc(=O)c(S(=O)(=O)c2ccc(-n3cc(Cl)ccc3=O)cc2)c1O [Example 276, 5-[4-(5-chloro-2-oxo-1,2-dihydropyridin-1-yl)benzenesulfonyl]-1-(2,6-dimethoxyphenyl)-6-hydroxy-2-(5-methylpyridin-3-yl)-1,4-dihydropyrimidin-4-one]
0.01 to 10 | COc1cccc(OC)c1-n1c(-c2cncc(C)c2)nc(=O)c(S(=O)(=O)c2ccc(C3CC3)cc2)c1O [Example 277, 5-(4-cyclopropylbenzene-sulfonyl)-1-(2,6-dimethoxyphenyl)-6-hydroxy-2-(5-methylpyridin-3-yl)-1,4-dihydropyrimidin-4-one]
0.01 to 10 | CC[C@@H](c1ccccc1)n1c(C2CCCC2)nc(=O)c(S(=O)(=O)c2ccc(-c3ccc(F)nc3)cc2)c1O [Example 280, 2-cyclopentyl-5-[4-(6-fluoropyridin-3-yl)benzenesulfonyl]-6-hydroxy-1-[(1S)-1-phenylpropyl]-1,4-dihydropyrimidin-4-one]
